Reference: patent US20120214846A1, “HEXAHYDROCYCLOPENTYL[F]INDAZOLE PYRIDYL ETHANOLS AND DERIVATIVES THEREOF AS SELECTIVE GLUCOCORTICOID RECEPTOR MODULATORS” (MERCK SHARP & DOHME CORP, priority 2009, published 2012)
pEC50: −log10 of the molar value. In brackets after ≈: the same amount, converted by molar mass. Where two headings read alike, the source gives them in different places.

Legend:
Solubility at pH 2 = format: physicochemical
GR = molecular target: T1, GR (Homo sapiens, UniProt P04150); assay: Transrepression Assay (GITAR), TNFα-β-lactamase reporter, U937 cells; format: cell-based; parameters: U937 cells contain an endogenous glucocorticoid receptor (GR); endogenous in cells; host or cells: U937 cells stably transfected with the TNF-alpha promoter beta-lactamase reporter
T1 sequence (P04150 1-777): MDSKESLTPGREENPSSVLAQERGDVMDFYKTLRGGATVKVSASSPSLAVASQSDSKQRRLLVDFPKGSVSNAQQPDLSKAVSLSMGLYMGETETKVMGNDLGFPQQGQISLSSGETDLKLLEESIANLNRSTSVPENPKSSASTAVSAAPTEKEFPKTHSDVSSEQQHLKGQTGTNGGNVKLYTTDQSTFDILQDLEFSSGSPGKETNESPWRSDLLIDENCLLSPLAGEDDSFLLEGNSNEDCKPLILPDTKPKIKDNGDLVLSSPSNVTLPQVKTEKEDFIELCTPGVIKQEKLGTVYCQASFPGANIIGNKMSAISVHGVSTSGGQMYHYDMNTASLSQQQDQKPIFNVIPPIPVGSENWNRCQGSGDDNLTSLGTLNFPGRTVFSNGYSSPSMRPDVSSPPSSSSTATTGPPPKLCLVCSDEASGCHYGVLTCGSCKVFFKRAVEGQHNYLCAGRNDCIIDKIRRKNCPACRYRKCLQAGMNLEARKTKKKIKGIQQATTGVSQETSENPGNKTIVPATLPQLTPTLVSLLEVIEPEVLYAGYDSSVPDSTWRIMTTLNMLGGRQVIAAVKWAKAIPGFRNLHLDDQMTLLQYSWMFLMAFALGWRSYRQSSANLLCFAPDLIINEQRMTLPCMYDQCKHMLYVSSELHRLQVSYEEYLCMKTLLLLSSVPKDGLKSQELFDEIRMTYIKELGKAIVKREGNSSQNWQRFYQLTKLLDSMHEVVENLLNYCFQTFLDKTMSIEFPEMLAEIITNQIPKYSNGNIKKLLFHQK
Source text: This assay assesses the ability of test compounds to control transcription from the TNFα-β-lactamase reporter gene in U937 cells, a human myelomonocytic leukemia cell line that naturally expresses the human GR. The assay measures compound dependent-repression of the TNFa promoter linked to a reporter gene.
The human U937 cells that had been stablely transfected with the TNF-α promoter driving […] are used for this assay. U937 cells contain an endogenous glucocorticoid receptor (GR). […] 50,000 cells/well are plated in 96 well black-walled plates the day of assay. Test compounds are added 10 μL/well, and cells are incubated at 37° C. for 30˜45 min. For assaying compounds, first dilute 1:10 in DMSO to make 1 mM, then further dilute 1:100 in medium to make 10× stock prior to adding to the cells. Add 50 ng/ml PMA (Sigma, cat#P8139) 10 μL/well to a final concentration 5 ng/ml, and 1 μg/ml LPS (Sigma, cat#L4130) 10 μL/well to a final concentration 100 ng/ml. Incubate cells at 37° C. overnight for ˜18 hr. PMA is stored frozen as 100 μg/ml stock in DMSO. Dilute 1:10 in DMSO for a working stock of […] and store at −20 C. For assaying, dilute the 10 μg/ml working stock 1:200 in medium to make a 10× solution (50 ng/ml). Store frozen LPS at 1 mg/ml in PBS, dilute 1:1000 in medium to make 10× (1 μg/ml) for the assay. Add 6× loading buffer (CCF2-AM) 20 μL/well, and incubate at room temperature for 70˜90 min. […] The activity repressed by 100 nM dexamethasone alone is set as 100% activity.

[1] = test system: female Sprague-Dawley rats, oxazolone (OX) contact dermatitis; assay: In Vivo Inflammation Assay (oxazolone contact dermatitis model); parameters: key to Inflammation Assay Glucose Effect / GL *: +: the glucose level increased compared to vehicle; −: the glucose level decreased compared to vehicle; details: for Inflammation Assay Glucose Effect / Inflammation Assay Anti-inflammatory Effect: rat; for Inflammation Assay Glucose Effect: glucose level compared to vehicle; for Inflammation Assay Anti-inflammatory Effect: relative to control compound
Experimental: In Vivo Inflammation Assay
Intact adult (6 month old) female Sprague-Dawley rats are used in the oxazolone (OX) contactdermatitis model. Rats were sensitized on the ventral abdomen with OX on Day 0. On Days 7 and 9, a randomly-selected ear was challenged (same ear each time) with OX; the other was treated with vehicle. Daily treatment begun on Day 7 and continued for 7d with test compounds at different doses and 1.3 mpk 6-methlyprednisolone or 0.1 mpk DEX as positive controls. The thickness of both ears are measured on Days 11 and 14. Necropsy occurred on Day 14. The rat is first weighed, then anesthetized in a CO2 chamber until near death. Approximately 5 ml whole blood is obtained by cardiac puncture. The rat is then examined for certain signs of death and completeness. Tissues are dissected in a highly stylized fashion. Then the following endpoints were evaluated: a) inhibiting ear inflammation induced by oxazalone, b) raising serum insulin, c) reducing serum ACTH, d) reducing spleen weight, e) reducing skin thickness, f) reducing body weight, g) increasing expression of bone-related genes with potential relationship to negative glucocorticoid effects on bone; e) changes in molecular markers that correlate with skin inflammation, skin thinning, muscle atrophy and glucose metabolism in liver. All blood samples were collected between 1330-1530 hours, ˜4-5 hrs after the last compound treatment.
Primary data for this assay are left and right ear thickness. Inter-ear thickness difference (etd) is used for the estimating the level of inflammation and effectiveness of the compounds is determined by their ability to reduce the increase the thickness of the inflamed ear. Back of the rat skin thickness, spleen weight, serum insulin as well as the effects of gcs on the expression of molecular markers in skin inflammation, skin atrophy, muscle atrophy and glucose metabolism in liver are measured. Data are analyzed by anova plus fisher plsd post-hoc test to identify intergroup differences.

[2] = pH 2, aqueous buffer, pH 2, read-out: Solubility At pH 2
[3] = U937 cells, inflection point, read-out: Transrepression U937 Cells GITAR IP
[4] = U-937, U937 cells, activity repressed by 100 nM dexamethasone set as 100%, read-out: Transrepression U937 Cells GITAR Emax

| Compound | solubility (Solubility at pH 2; [2]) | pEC50 (GR; [3]) | Emax (GR; [4]) | Inflammation Assay Glucose Effect [1] | Inflammation Assay Anti-inflammatory Effect [1] | solubility (Solubility at pH 2; Table 4, literature compounds) | pEC50 (GR; Table 4, literature compounds, read-out: GITAR IP) | Emax (GR; U-937, Table 4, literature compounds, read-out: GITAR EMAX) | GL * ([1]; Table 4, literature compounds, glucose effect) | solubility (Solubility at pH 2; pH 2, read-out: Solubility At pH 2) | Transrepression U937 Cells GITAR Emax (GR; U937 cells, activity repressed by 100 nM dexamethasone set as 100%) |
| --- | --- | --- | --- | --- | --- | --- | --- | --- | --- | --- | --- |
| C[C@]12Cc3cnn(-c4ccc(F)cc4)c3C=C1CC[C@@]2(O)CC(O)c1cc(C#N)ccn1 (stereo partly drawn) [Example 9, 2-{2-[(4αS,5R)-1-(4-fluorophenyl)-5-hydroxy-4α-methyl-1,4,4α,5,6,7-hexahydrocyclopenta[f]indazol-5-yl]-1-hydroxyethyl}pyridine-4-carbonitrile] | 104 µM (≈ 44.8 µg/mL) | 7.32 | 74.9% | + | + (the anti-inflammatory activity was equal to or greater than 40% of the effect generated by the control compound) |  |  |  |  |  |  |
| Cc1ccnc(C(O)C[C@]2(O)CCC3=Cc4c(cnn4-c4ccc(F)cc4)C[C@@]32C)c1 (stereo partly drawn) [Example 11, (4αS,5R)-1-(4-fluorophenyl)-5-[2-hydroxy-2-(4-methylpyridin-2-yl)ethyl]-4α-methyl-1,4,4α,5,6,7-hexahydrocyclopenta[f]indazol-5-ol] | 193 µM (≈ 81 µg/mL) | 7.32 | 69.1% | + | + (the anti-inflammatory activity was equal to or greater than 40% of the effect generated by the control compound) |  |  |  |  |  |  |
| C[C@]12Cc3cnn(-c4ccc(F)cc4)c3C=C1CCC[C@@H]2[C@@H](O)CCc1ccccc1 [Ex. 30 WO 03/086294 A2, reference compound] |  |  |  |  |  | poor | 6.78 | 82.9% | − |  |  |
| C[C@]12Cc3cnn(-c4ccc(F)cc4)c3C=C1CC[C@@]2(O)CC(O)c1ccccn1 (single isomer, unassigned) [Example 2b] |  | 6.89 |  | − | + (the anti-inflammatory activity was equal to or greater than 40% of the effect generated by the control compound) |  |  |  |  | 192 µM (≈ 77.9 µg/mL) | 68.6% |
| Cc1cccnc1C(O)C[C@]1(O)CCC2=Cc3c(cnn3-c3ccc(F)cc3)C[C@@]21C (single isomer, unassigned) [Example 1a] | 148 µM (≈ 62.1 µg/mL) | 7.02 | 71.3% | − | + (the anti-inflammatory activity was equal to or greater than 40% of the effect generated by the control compound) |  |  |  |  |  |  |
